From US10743543B2, “Botanical disinfection composition, disinfectant and preparation method thereof” (priority 2016, dated 2020)

Key:
[1] = system: Mycobacterium tuberculosis; conditions: concentration: ethanol 70%
Candida albicans = assay: Time needed to meet disinfection requirements, Candida albicans; format: cell-based; conditions: concentration: ethanol 70%, iodophor 40 mg/L, Embodiment 11 stock
Staphylococcus aureus = assay: Time needed to meet disinfection requirements, Staphylococcus aureus; format: cell-based; conditions: concentration: ethanol 70%, benzalkonium bromide 1:1000, 1210 250 ppm, Embodiment 11 stock
Pseudomonas auerginosa = assay: Time needed to meet disinfection requirements, Pseudomonas aeruginosa; format: cell-based; conditions: concentration: ethanol 70%, 1210 500 ppm, Embodiment 11 stock
Escherichia coli = assay: Time needed to meet disinfection requirements, Escherichia coli; format: cell-based; conditions: concentration: ethanol 70%, benzalkonium bromide 1:1000, 1210 250 ppm, Embodiment 11 stock
pathogenic bacteria = conditions: general statement on antibacterial properties; cited from earlier work

Molecule | Time needed for meeting disinfection requirements [1] | Time needed for meeting disinfection requirements (Candida albicans) | Time needed for meeting disinfection requirements (Staphylococcus aureus) | Time needed for meeting disinfection requirements (Pseudomonas auerginosa) | Time needed for meeting disinfection requirements (Escherichia coli) | bactericidal concentration (pathogenic bacteria)
CCO [Ethanol] | 5 min | 1 min | 5 min | 1 min | 0.5. min | 
Benzalkonium bromide |  |  | 5 min |  | 10 min | 
O=C(O)CCCCCCCC(=O)O [Azelaic acid, azelaic acid] |  |  |  |  |  | 1 mol/L
